Results from US10457709B2, “Antimicrobial peptides, their variants and uses” (priority 2015, dated 2019).
Values after ≈ are worked out from the molar mass of the structure shown. Square brackets hold non-standard residues; d marks the D form. Peptide text beside a SMILES is read from it.

Columns and labels:
[1] = system: Staphylococcus aureus clinical strains; format: cell-based; conditions: clinical strains
Experimental: (§1) Minimum inhibition concentrations (MICs) were determined against Escherichia coli (ATCC 25922), Staphylococcus aureus (ATCC 25923), Klebsiella pneumoniae (ATCC 10031) and Pseudomonas aeruginosa (ATCC 27853). Also clinical strains of E. coli, K. pneumoniae, E. cloacae, P. aeruginosa, Serratia marcescens, Proteus mirabilis, S. pneumoniae, Acinetobacter baumannii, A. johnsonii and S. aureus were used for MICs assays. Additionally, clinical strains of yeast including Candida albicans, C. glabrata, C. parapsilosis and C. quillermondiae were used. The susceptibility of these microorganisms to Chain peptides were determined using micro broth dilution assay. Colonies of the respective microorganism from Muller Hinton (MH) agar plates incubated overnight were suspended in MH broth media and final concentration of microorganism was adjusted to 5.0×10^5 cfu/ml. An aliquot of 10 μl of each Chain peptide, or gentamicin, tetracycline as reference antibiotics were added in differing concentrations along with 90 μl of bacterial suspension to 96 well polypropylene plates and incubated at 37° C. for 20 to 24 hours. Concentrations of Chain peptides and reference antibiotics ranged from 0.125 to 128 μg/ml and the MICs were recorded as the lowest concentration with no visual growth of bacteria. Similarly, antifungal MICs were tested in Potato dextrose broth.
(§2) Clinical strains of yeasts including Candida albicans, C. glabrata, C. parapsilosis and C. quillermondiae were also tested with the 12 Chain peptides. The minimum inhibitory concentration (MICs) varied between these peptides and are presented in Tables 4a, 4b, 4c and 5a, 5b, 5c. Peptides Chain 105, 201 and 308 are broad spectrum antimicrobials with MICs between 0.5-32 μg/ml against all the bacteria and yeasts tested, except Serratia marcescens and Proteus mirabilis, against which the MICs were between 64-128 μg/ml. Peptide Chain 306 has narrow spectrum activity against E. coli at 1 μg/ml and for the rest of the bacterial strains at >32 μg/ml (FIG. 10c).

[2] = system: Acinetobacter baumannii clinical strains; format: cell-based; conditions: clinical strains
Experimental: as §1, §2

[3] = system: Enterobacter cloacae clinical strains; format: cell-based; conditions: clinical strains
Experimental: as §1, §2

[4] = system: Streptococcus pneumoniae clinical strains; format: cell-based; conditions: clinical strains
Experimental: as §1, §2

[5] = system: Proteus mirabilis clinical strains; format: cell-based; conditions: clinical strains
Experimental: as §1, §2

[6] = system: Serratia marcescens clinical strains; format: cell-based; conditions: clinical strains
Experimental: as §1, §2

[7] = system: Acinetobacter johnsonii clinical strains; format: cell-based; conditions: clinical strain 1; D-form peptides; MH broth-cation adjusted, 0.02% BSA, 0.2% acetic acid
Experimental: as §1, §2

[8] = system: Klebsiella pneumoniae clinical strains; format: cell-based; conditions: clinical strains
Experimental: as §1, §2

[9] = system: Pseudomonas aeruginosa clinical strains; format: cell-based; conditions: clinical strains
Experimental: as §1, §2

[10] = system: Escherichia coli clinical strains; format: cell-based; conditions: clinical strains
Experimental: as §1, §2

[11] = system: C. glabrata clinical strains; assay: MIC, clinical yeast strains; format: cell-based, Candida glabrata; set-up: unit: µg/ml
Experimental: as §1, §2

[12] = system: Candida albicans clinical strains; assay: MIC, clinical yeast strains; format: cell-based; set-up: unit: μg/ml
Experimental: as §1, §2

[13] = system: C. parapsilosis clinical strains; assay: MIC, clinical yeast strains; format: cell-based, Candida parapsilosis; set-up: unit: µg/ml
Experimental: as §1, §2

[14] = system: C. quillermondiae clinical strains; assay: MIC, clinical yeast strains; format: cell-based, Candida quillermondiae; set-up: unit: μg/ml; conditions: C. quillermondiae clinical yeast strain 1
Experimental: as §1, §2

For `CC[C@@H](C)[C@@H](NC(=O)[C@@H](CCSC)NC(=O)[C@@H](C)NC(=O)[C@@H](CCCNC(=N)N)NC(=O)[C@@H](Cc1c[nH]c2ccccc12)NC(=O)[C@@H](CCCCN)NC(=O)[C@H](N)CCCNC(=N)N)C(=O)N[C@H](CCCNC(=N)N)C(=O)N[C@H](CC(C)C)C(=O)N[C@H](Cc1c[nH]cn1)C(=O)N[C@H](C)C(=O)N[C@H](CCCCN)C(=O)N[C@H](CCCNC(=N)N)C(=O)N[C@H](CC(C)C)C(=O)N[C@H](CCCNC(=N)N)C(=O)N[C@H](CCCCN)C(=O)O` [Chain104D] (H-[dR][dK][dW][dR][dA][dM][dI][dR][dL][dH][dA][dK][dR][dL][dR][dK]-OH), which “MIC, Staphylococcus aureus strain 1” value [1] is on record?
Its value is 4 µg/mL (≈ 1.89 µM).

And the “MIC, Staphylococcus aureus strain 2” value [1]?
The value was 2 µg/mL (≈ 0.944 µM).

What about the “MIC, Staphylococcus aureus strain 3” value [1] of the same compound?
The value was 4 µg/mL (≈ 1.89 µM).

What about the “MIC, Staphylococcus aureus strain 4” value [1] of the same compound?
Its value is 2 µg/mL (≈ 0.944 µM).

What about the “MIC, Staphylococcus aureus strain 5” value [1] of the same compound?
The value was 4 µg/mL (≈ 1.89 µM).

What about the “MIC, Acinetobacter baumannii strain 1” value [2] of the same compound?
The value was 16 µg/mL (≈ 7.55 µM).

And the “MIC, Acinetobacter baumannii strain 2” value [2]?
The value was 8 µg/mL (≈ 3.77 µM).

And the “MIC, Acinetobacter baumannii strain 3” value [2]?
Its value is 8 µg/mL (≈ 3.77 µM).

What about the “MIC, Acinetobacter baumannii strain 4” value [2] of the same compound?
The value was 4 µg/mL (≈ 1.89 µM).

What about the “MIC, Acinetobacter baumannii strain 5” value [2] of the same compound?
Its value is 8 µg/mL (≈ 3.77 µM).

And the “MIC, Enterobacter cloacae strain 1” value [3]?
Its value is 4 µg/mL (≈ 1.89 µM).

And the “MIC, Enterobacter cloacae strain 2” value [3]?
The value was 4 µg/mL (≈ 1.89 µM).

And the “MIC, Enterobacter cloacae strain 3” value [3]?
Its value is 8 µg/mL (≈ 3.77 µM).

What about the “MIC, Enterobacter cloacae strain 4” value [3] of the same compound?
The value was 4 µg/mL (≈ 1.89 µM).

What about the “MIC, Enterobacter cloacae strain 5” value [3] of the same compound?
Its value is 2 µg/mL (≈ 0.944 µM).

What about the “MIC, Streptococcus pneumoniae strain 1” value [4] of the same compound?
The value was 4 µg/mL (≈ 1.89 µM).

And the “MIC, Streptococcus pneumoniae strain 2” value [4]?
The value was 2 µg/mL (≈ 0.944 µM).

And the “MIC, Streptococcus pneumoniae strain 3” value [4]?
The value was 1 µg/mL (≈ 0.472 µM).

And the “MIC, Streptococcus pneumoniae strain 4” value [4]?
The value was 4 µg/mL (≈ 1.89 µM).

And the “MIC, Streptococcus pneumoniae strain 5” value [4]?
Its value is 1 µg/mL (≈ 0.472 µM).

And the “MIC, Proteus mirabilis strain 1” value [5]?
The value was >128 µg/mL.

And the “MIC, Proteus mirabilis strain 2” value [5]?
Its value is 32 µg/mL (≈ 15.1 µM).

What about the “MIC, Proteus mirabilis strain 3” value [5] of the same compound?
The value was 128 µg/mL (≈ 60.4 µM).

What about the “MIC, Proteus mirabilis strain 4” value [5] of the same compound?
Its value is >128 µg/mL.

And the “MIC, Proteus mirabilis strain 5” value [5]?
Its value is >128 µg/mL.

And the “MIC, Serratia marcescens strain 1” value [6]?
Its value is >128 µg/mL.

What about the “MIC, Serratia marcescens strain 2” value [6] of the same compound?
The value was >128 µg/mL.

And the “MIC, Serratia marcescens strain 3” value [6]?
Its value is >128 µg/mL.

What about the “MIC, Serratia marcescens strain 4” value [6] of the same compound?
Its value is >128 µg/mL.

And the “MIC, Serratia marcescens strain 5” value [6]?
Its value is 128 µg/mL (≈ 60.4 µM).

And the “MIC, Acinetobacter johnsonii strain 1” value [7]?
Its value is 8 µg/mL (≈ 3.77 µM).

And the “MIC, Klebsiella pneumoniae strain 1” value [8]?
The value was 8 µg/mL (≈ 3.77 µM).

What about the “MIC, Klebsiella pneumoniae strain 2” value [8] of the same compound?
Its value is 4 µg/mL (≈ 1.89 µM).

What about the “MIC, Klebsiella pneumoniae strain 3” value [8] of the same compound?
The value was 8 µg/mL (≈ 3.77 µM).

What about the “MIC, Klebsiella pneumoniae strain 4” value [8] of the same compound?
Its value is 16 µg/mL (≈ 7.55 µM).

What about the “MIC, Klebsiella pneumoniae strain 5” value [8] of the same compound?
Its value is 4 µg/mL (≈ 1.89 µM).

And the “MIC, Pseudomonas aeruginosa strain 1” value [9]?
Its value is 4 µg/mL (≈ 1.89 µM).

And the “MIC, Pseudomonas aeruginosa strain 2” value [9]?
The value was 2 µg/mL (≈ 0.944 µM).

What about the “MIC, Pseudomonas aeruginosa strain 3” value [9] of the same compound?
Its value is 4 µg/mL (≈ 1.89 µM).

What about the “MIC, Pseudomonas aeruginosa strain 4” value [9] of the same compound?
Its value is 2 µg/mL (≈ 0.944 µM).

And the “MIC, Pseudomonas aeruginosa strain 5” value [9]?
The value was 1 µg/mL (≈ 0.472 µM).

What about the “MIC, Escherichia coli strain 1” value [10] of the same compound?
The value was 4 µg/mL (≈ 1.89 µM).

And the “MIC, Escherichia coli strain 2” value [10]?
The value was 4 µg/mL (≈ 1.89 µM).

What about the “MIC, Escherichia coli strain 3” value [10] of the same compound?
The value was 4 µg/mL (≈ 1.89 µM).

And the “MIC, Escherichia coli strain 4” value [10]?
The value was 4 µg/mL (≈ 1.89 µM).

What about the “MIC, Escherichia coli strain 5” value [10] of the same compound?
Its value is 4 µg/mL (≈ 1.89 µM).

And the Minimum inhibitory concentration ([11]; C. glabrata clinical yeast strain 1)?
Its Minimum inhibitory concentration is 8.

And the Minimum inhibitory concentration ([11]; C. glabrata clinical yeast strain 2)?
Its Minimum inhibitory concentration is 8.

And the Minimum inhibitory concentration ([11]; C. glabrata clinical yeast strain 3)?
The Minimum inhibitory concentration was 8.

And the Minimum inhibitory concentration ([11]; C. glabrata clinical yeast strain 4)?
Its Minimum inhibitory concentration is 16.

And the Minimum inhibitory concentration ([12]; Candida albicans clinical yeast strain 1)?
The Minimum inhibitory concentration was 8.

What about the Minimum inhibitory concentration ([12]; Candida albicans clinical yeast strain 2) of the same compound?
The Minimum inhibitory concentration was 8.

And the Minimum inhibitory concentration ([12]; Candida albicans clinical yeast strain 3)?
Its Minimum inhibitory concentration is 8.

And the Minimum inhibitory concentration ([12]; Candida albicans clinical yeast strain 4)?
The Minimum inhibitory concentration was 8.

And the Minimum inhibitory concentration ([12]; Candida albicans clinical yeast strain 5)?
The Minimum inhibitory concentration was 8.

What about the Minimum inhibitory concentration ([13]; C. parapsilosis clinical yeast strain 1) of the same compound?
Its Minimum inhibitory concentration is 4.

What about the Minimum inhibitory concentration ([13]; C. parapsilosis clinical yeast strain 2) of the same compound?
The Minimum inhibitory concentration was 4.

And the Minimum inhibitory concentration ([13]; C. parapsilosis clinical yeast strain 3)?
The Minimum inhibitory concentration was 4.

And the Minimum inhibitory concentration ([13]; C. parapsilosis clinical yeast strain 4)?
Its Minimum inhibitory concentration is 2.

And the Minimum inhibitory concentration [14]?
The Minimum inhibitory concentration was 4.
